The target in series [1] is T1, Interleukin-1 receptor-associated kinase 4 (Homo sapiens, UniProt Q9NWZ3).
T1 sequence (Q9NWZ3 whole entry): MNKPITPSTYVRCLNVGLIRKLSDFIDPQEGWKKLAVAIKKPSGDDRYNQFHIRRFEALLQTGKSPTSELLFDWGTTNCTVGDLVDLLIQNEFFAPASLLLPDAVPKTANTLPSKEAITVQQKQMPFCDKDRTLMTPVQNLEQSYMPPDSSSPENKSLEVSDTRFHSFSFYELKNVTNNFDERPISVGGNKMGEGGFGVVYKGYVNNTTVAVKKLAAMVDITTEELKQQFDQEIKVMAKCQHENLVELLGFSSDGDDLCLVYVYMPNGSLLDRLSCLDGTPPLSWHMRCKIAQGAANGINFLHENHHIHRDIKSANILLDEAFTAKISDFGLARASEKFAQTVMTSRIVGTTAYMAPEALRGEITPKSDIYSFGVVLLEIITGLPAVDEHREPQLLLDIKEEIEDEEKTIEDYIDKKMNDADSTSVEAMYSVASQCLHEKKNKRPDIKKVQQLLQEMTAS
Kind of series: Inhibition of human IRAK4 (unknown origin).

For series [2], the target named is Receptor-type tyrosine-protein kinase FLT3 (Homo sapiens) (UniProt P36888). Kind of series: Inhibition of FLT3 (unknown origin).
Receptor-type tyrosine-protein kinase FLT3 (Homo sapiens), sequence (P36888 whole entry): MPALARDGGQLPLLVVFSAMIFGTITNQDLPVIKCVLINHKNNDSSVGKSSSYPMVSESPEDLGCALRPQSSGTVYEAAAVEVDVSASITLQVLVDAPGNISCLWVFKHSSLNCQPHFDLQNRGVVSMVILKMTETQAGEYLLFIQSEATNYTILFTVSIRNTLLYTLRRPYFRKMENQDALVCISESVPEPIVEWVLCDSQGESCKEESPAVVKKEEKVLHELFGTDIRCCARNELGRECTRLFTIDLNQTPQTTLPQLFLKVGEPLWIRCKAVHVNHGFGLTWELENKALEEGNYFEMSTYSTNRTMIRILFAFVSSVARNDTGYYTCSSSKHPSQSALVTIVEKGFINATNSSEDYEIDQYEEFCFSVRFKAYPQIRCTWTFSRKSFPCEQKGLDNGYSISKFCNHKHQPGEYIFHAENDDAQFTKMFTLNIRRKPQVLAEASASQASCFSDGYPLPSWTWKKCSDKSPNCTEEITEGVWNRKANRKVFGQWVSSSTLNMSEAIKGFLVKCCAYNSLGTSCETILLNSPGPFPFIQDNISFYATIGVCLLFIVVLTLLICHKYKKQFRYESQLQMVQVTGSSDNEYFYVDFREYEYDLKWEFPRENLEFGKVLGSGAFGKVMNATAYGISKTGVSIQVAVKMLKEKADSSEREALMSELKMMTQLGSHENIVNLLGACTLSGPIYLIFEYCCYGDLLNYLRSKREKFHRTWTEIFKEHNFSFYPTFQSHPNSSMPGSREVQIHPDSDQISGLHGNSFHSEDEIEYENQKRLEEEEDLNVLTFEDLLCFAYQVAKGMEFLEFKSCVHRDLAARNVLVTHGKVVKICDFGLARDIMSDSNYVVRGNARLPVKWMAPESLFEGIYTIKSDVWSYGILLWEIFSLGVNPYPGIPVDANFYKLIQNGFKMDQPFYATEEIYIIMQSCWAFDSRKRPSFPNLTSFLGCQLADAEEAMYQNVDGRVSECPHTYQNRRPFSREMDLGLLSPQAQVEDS
For series [3], the target named is Misshapen-like kinase 1 (Homo sapiens) (UniProt Q8N4C8). As to the kind of experiment: Inhibition of MINK1 (unknown origin).
Misshapen-like kinase 1 (Homo sapiens), sequence (Q8N4C8 whole entry, looked up): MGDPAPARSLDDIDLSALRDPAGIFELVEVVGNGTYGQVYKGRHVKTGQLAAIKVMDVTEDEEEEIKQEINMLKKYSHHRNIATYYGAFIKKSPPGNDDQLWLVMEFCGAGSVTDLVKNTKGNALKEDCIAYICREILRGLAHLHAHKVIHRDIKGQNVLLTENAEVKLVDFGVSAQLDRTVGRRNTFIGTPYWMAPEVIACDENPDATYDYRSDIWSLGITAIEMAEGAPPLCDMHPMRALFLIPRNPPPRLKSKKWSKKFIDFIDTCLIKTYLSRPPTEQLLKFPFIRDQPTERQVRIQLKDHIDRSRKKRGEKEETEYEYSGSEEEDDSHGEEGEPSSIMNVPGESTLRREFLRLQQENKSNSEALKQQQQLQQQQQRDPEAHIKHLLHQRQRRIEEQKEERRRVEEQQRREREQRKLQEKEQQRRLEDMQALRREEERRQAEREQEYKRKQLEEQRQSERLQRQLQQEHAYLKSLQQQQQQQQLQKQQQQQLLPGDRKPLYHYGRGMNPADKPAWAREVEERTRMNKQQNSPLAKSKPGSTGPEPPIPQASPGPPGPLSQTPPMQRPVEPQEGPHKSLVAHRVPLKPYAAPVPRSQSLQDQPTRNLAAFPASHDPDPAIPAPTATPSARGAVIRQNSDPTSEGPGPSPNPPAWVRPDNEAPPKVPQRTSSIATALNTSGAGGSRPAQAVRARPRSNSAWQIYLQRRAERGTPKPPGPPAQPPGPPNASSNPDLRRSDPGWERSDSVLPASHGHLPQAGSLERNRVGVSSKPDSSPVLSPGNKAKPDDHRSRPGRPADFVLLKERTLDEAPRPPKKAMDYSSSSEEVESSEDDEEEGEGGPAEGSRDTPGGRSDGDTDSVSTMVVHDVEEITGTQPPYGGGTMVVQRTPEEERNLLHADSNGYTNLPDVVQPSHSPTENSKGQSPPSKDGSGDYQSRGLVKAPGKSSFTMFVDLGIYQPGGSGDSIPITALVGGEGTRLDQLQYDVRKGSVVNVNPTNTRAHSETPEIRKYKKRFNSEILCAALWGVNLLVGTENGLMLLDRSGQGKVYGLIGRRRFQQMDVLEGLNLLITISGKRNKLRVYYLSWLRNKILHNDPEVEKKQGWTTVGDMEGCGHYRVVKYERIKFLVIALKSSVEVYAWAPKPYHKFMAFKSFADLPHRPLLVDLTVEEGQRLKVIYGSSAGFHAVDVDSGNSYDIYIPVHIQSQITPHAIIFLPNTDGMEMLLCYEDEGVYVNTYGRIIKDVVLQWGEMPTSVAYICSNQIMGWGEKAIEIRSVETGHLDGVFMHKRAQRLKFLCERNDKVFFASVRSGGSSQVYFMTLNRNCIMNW
In series [4] the target is BDNF/NT-3 growth factors receptor (Homo sapiens) (UniProt Q16620). Kind of series: Inhibition of TRKB (unknown origin).
The target of series [5] is Leucine-rich repeat serine/threonine-protein kinase 2 (Homo sapiens) (UniProt Q5S007). Kind of series: Inhibition of LRRK2 (unknown origin).
Series [6] has as its target T1, Interleukin-1 receptor-associated kinase 4. As to the kind of experiment: Inhibition of IRAK4-dependent TLR4 signaling in human THP1-XBlue cells containing NF-kappaB-inducible SEAP reporter gene assessed as inhibition of LPS-EK-induced TLR4 activation incubated at 37 degC for 1 hr by spectrophotometry. Type of series: cell-based, THP-1. Background: Reporter assays use an easily measured gene product as a stand-in for the process of interest.

The target in series [7] is T2, Tumor necrosis factor receptor superfamily member 1A (Homo sapiens, UniProt P19438).
T2 sequence (P19438 whole entry): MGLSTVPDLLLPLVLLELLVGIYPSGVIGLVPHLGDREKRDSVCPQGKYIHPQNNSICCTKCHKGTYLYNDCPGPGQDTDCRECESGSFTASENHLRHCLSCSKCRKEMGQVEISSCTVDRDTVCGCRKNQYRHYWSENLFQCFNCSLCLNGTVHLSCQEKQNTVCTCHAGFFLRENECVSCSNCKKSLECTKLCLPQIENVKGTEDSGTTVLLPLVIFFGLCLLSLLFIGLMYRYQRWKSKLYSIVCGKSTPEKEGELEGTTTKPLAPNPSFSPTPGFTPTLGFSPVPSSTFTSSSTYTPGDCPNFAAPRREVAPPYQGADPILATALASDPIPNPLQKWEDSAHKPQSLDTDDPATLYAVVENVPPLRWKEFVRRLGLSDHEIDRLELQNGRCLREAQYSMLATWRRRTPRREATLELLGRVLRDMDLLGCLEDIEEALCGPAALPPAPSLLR
Kind of series: Inhibition of TNFR in human THP1-XBlue cells containing NF-kappaB-inducible SEAP reporter gene assessed as inhibition of TNFalpha-induced TNFR activation incubated at 37 degC for 1 hr by spectrophotometry. Type of series: cell-based, THP-1.

In series [8] the target is Cytochrome P450 3A4 (Homo sapiens, UniProt P08684). As to the kind of experiment: Inhibition of CYP3A4 (unknown origin). Type of series: ADME.
Cytochrome P450 3A4, sequence (P08684 whole entry): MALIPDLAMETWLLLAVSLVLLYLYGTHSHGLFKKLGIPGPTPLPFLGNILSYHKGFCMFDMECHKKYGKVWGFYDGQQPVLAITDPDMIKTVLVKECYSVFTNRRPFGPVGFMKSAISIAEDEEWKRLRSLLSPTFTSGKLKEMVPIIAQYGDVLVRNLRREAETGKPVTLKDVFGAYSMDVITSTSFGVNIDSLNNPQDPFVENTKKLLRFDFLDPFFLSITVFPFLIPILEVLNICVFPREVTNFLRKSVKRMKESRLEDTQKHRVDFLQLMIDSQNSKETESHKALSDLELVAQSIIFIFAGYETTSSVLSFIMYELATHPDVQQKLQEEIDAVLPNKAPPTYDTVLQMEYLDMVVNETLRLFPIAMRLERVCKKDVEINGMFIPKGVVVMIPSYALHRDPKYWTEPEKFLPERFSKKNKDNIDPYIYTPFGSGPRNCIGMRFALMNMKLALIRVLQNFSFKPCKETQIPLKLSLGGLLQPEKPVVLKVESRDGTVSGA
Series [9] deals with Cytochrome P450 2D6 (Homo sapiens, UniProt P10635). Kind of series: Inhibition of CYP2D6 (unknown origin). It counts as ADME.
Cytochrome P450 2D6, sequence (P10635 whole entry): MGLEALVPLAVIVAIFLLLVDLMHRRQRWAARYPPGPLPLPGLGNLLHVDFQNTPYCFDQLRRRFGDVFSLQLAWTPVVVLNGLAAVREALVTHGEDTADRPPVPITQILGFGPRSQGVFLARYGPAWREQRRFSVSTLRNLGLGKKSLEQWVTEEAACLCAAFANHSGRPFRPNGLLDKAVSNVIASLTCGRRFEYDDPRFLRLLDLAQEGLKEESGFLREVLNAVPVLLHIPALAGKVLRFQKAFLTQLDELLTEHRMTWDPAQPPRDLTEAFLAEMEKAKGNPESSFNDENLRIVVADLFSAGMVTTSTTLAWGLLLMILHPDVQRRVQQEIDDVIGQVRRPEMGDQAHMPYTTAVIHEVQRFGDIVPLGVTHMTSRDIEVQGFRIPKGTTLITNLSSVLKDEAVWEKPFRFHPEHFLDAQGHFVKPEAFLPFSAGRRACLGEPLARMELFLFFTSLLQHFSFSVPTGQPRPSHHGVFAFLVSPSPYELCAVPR
Series [10] has as its target Cytochrome P450 2C9 (Homo sapiens, UniProt P11712). As to the kind of experiment: Inhibition of CYP2C9 (unknown origin). It counts as ADME.
A short description of series [11]: Solubility in pH 7 solution. It counts as physicochemical.
The target of series [12] is T3, Interleukin-1 receptor-associated kinase 4 (Homo sapiens) (UniProt Q9NWZ3).
T3 sequence (whole entry): T1 sequence (Q9NWZ3 whole entry)
Kind of series: Potency index, ratio of IC50 for inhibition of IRAK4-dependent TLR4 signaling in human THP1-XBlue cells containing NF-kappaB-inducible SEAP reporter gene to IC50 for human IRAK4 (unknown origin). Type of series: cell-based.

The nature of series [13]: Apparent permeability in pig LLC-PK1 cells. It counts as ADME, cell-based, Sus scrofa.
In series [14] the target is Tyrosine-protein kinase Lck (Homo sapiens) (UniProt P06239). Kind of series: Inhibition of LCK (unknown origin).
Tyrosine-protein kinase Lck (Homo sapiens), sequence (P06239 2-509 limits assumed): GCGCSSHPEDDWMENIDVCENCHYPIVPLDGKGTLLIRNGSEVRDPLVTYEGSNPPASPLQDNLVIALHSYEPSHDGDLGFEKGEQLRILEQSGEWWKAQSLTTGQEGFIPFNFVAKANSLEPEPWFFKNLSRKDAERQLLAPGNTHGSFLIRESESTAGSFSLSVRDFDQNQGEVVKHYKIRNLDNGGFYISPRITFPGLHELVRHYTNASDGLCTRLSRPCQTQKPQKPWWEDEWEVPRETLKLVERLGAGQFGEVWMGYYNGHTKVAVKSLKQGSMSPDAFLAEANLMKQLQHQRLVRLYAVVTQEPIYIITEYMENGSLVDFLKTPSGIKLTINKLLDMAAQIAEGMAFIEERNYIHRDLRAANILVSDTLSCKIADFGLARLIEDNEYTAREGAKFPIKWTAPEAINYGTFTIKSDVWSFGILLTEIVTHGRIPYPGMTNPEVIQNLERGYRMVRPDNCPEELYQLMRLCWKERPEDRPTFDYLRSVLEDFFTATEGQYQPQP
Series [15] has as its target Dual specificity protein kinase CLK2 (Homo sapiens) (UniProt P49760). Kind of series: Inhibition of CLK2 (unknown origin).
Series [16] addresses Proto-oncogene tyrosine-protein kinase receptor Ret (Homo sapiens) (UniProt P07949). Kind of series: Inhibition of RET (unknown origin).
The target in series [17] is Platelet-derived growth factor receptor alpha (Homo sapiens) (UniProt P16234). As to the kind of experiment: Inhibition of PDGFRA (unknown origin).

The structures appear in SMILES notation. ≈ marks a conversion by molar mass, not a printed value. Calls of active or inactive are those of the source. The calls are words filed in the database; no cut-off is given here.

Cytochrome P450 2C9, sequence (P11712 whole entry): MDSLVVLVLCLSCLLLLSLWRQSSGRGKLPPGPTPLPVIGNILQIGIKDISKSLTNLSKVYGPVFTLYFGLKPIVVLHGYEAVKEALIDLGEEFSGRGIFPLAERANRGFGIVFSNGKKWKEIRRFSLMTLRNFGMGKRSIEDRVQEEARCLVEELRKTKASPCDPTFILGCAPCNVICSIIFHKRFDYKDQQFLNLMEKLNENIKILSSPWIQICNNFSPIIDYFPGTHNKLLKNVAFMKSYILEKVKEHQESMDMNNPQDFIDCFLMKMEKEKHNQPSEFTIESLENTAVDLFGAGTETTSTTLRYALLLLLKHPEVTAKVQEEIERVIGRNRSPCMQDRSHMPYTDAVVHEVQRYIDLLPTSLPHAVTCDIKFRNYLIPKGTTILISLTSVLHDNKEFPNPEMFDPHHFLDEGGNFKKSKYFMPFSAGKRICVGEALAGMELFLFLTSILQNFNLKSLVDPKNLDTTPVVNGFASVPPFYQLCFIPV
Dual specificity protein kinase CLK2 (Homo sapiens), sequence (P49760 whole entry, looked up): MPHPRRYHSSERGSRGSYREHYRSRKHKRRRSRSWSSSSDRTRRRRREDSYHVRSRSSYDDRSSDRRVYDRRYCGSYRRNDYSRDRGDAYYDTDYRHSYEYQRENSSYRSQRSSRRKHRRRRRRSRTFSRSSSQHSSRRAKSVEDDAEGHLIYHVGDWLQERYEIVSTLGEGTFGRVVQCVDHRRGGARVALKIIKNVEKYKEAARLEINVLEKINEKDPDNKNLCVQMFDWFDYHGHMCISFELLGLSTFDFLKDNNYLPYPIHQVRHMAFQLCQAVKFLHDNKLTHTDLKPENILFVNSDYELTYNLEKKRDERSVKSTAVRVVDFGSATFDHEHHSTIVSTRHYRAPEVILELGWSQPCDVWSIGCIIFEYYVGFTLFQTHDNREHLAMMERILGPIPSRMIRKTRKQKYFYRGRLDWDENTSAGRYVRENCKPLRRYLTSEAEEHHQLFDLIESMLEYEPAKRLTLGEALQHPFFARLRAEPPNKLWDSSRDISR

As usually defined, the IC50 is the midpoint of a concentration-inhibition curve. Molecule `OC[C@H]1C[C@@H](Nc2nc(Nc3ccncc3)ncc2-c2nccs2)[C@H](O)[C@@H]1O` came in with an IC50 in [1] of more than 20000 nM.

Consider `Cc1cc(Nc2ncc(-c3cscn3)c(N[C@@H]3C[C@H](CO)[C@@H](O)[C@H]3O)n2)cc(C)n1`, for which, in [1], it took 852 nM to reach half-maximal inhibition (IC50).

With `Cc1cc(Nc2ncc(-c3nc4ccncc4s3)c(N[C@@H]3C[C@H](CO)[C@@H](O)[C@H]3O)n2)ccn1`, in series [1], half-maximal inhibition (IC50) required 12 nM.

In series [1], `OC[C@H]1C[C@@H](Nc2nc(Nc3cccnc3)ncc2-c2nc3ccncc3s2)[C@H](O)[C@@H]1O` yielded an IC50 of 18 nM.

As usually defined, the solubility is how much of the substance goes into solution per volume. A lower solubility goes with a poorly soluble substance. In general, Papp refers to the rate of passage across a membrane or cell layer, normalised by area and donor concentration. Turning to `Cc1cc(Nc2ncc(-c3nc(-c4ccccc4)cs3)c(N[C@@H]3C[C@H](CO)[C@@H](O)[C@H]3O)n2)cc(C)n1`, the IC50 is 4 nM in series [1]; 87 nM in [6]; more than 31000 nM in series [7]; more than 50000 nM in series [8]; more than 50000 nM in series [9]; more than 50000 nM in series [10]. The inhibition entry in series [2], in [3], in [4] and in series [5] was “Active” in each case. In addition, the solubility in [11] came out at 17 µM (≈ 8.58 µg/mL). For the same molecule, the Ratio IC50 in series [12] was 10. In addition, the Papp in series [13] is more than 15 ×10⁻⁶ cm/s.

With `Cc1cc(Nc2ncc(-c3cncs3)c(N[C@@H]3C[C@H](CO)[C@@H](O)[C@H]3O)n2)cc(C)n1`, in series [1], half-maximal inhibition (IC50) was put at 2110 nM.

As for `OC[C@H]1C[C@@H](Nc2nc(Nc3ccnc(OC4CC4)c3)ncc2-c2ccc3ccccc3n2)[C@H](O)[C@@H]1O`, the concentration for half-maximal inhibition (IC50) in series [1] is 44 nM; in series [6], 341 nM; in series [7], more than 31000 nM; in [8], more than 50000 nM; in series [9], more than 50000 nM; in [10], more than 50000 nM. For the same molecule, the solubility in series [11] was 31 µM (≈ 15.5 µg/mL). In [12], the Ratio IC50 amounted to 10. In [13], the Papp was more than 15 ×10⁻⁶ cm/s.

In turn, `OC[C@H]1C[C@@H](Nc2nc(Nc3cccnc3)ncc2-c2nc3cnccc3s2)[C@H](O)[C@@H]1O` came in with an IC50 in series [1] of 11 nM.

As for `CC(C)Oc1cc(Nc2ncc(-c3ccc4ccccc4n3)c(N[C@@H]3C[C@H](CO)[C@@H](O)[C@H]3O)n2)ccn1`, the half-maximal inhibitory concentration (IC50) is 216 nM in series [6]; more than 31000 nM in [7]; more than 50000 nM in [8]; more than 50000 nM in [9]; more than 50000 nM in [10]. Moreover, the solubility in series [11] was found to be 23 µM (≈ 11.6 µg/mL). Moreover, the Ratio IC50 in series [12] was 10. Besides, in [13], the Papp was more than 15 ×10⁻⁶ cm/s.

In [1], `OC[C@H]1C[C@@H](Nc2nc(Nc3cncnc3)ncc2-c2nc3cnccc3s2)[C@H](O)[C@@H]1O` came in with an IC50 of 12 nM.

Turning to `Cc1cc(Nc2ncc(-c3ccc4ccccc4n3)c(N[C@@H]3C[C@H](CO)[C@@H](O)[C@H]3O)n2)cc(C)n1`, the IC50 in series [1] is 0.74 nM; in series [6] it was 55 nM; in series [7] it was more than 31000 nM; in [8], more than 50000 nM; in series [9], more than 50000 nM; in series [10], more than 50000 nM. Moreover, the inhibition entry in series [2], in [3], in series [4], in [5], in [14] and in series [15] was “Active” in each case. For the same molecule, the solubility in series [11] was found to be 72 µM (≈ 34 µg/mL). Further, the Ratio IC50 in [12] came out at 10. The Papp in [13] is more than 15 ×10⁻⁶ cm/s.

As to `Cc1cc(Nc2cc(N[C@@H]3C[C@H](CO)[C@@H](O)[C@H]3O)c(-c3nc4ccccc4s3)cn2)cc(C)n1`, the IC50 is 14 nM in [1]; 3450 nM in series [6]; more than 31000 nM in series [7]; more than 50000 nM in series [8]; more than 50000 nM in series [9]; more than 50000 nM in series [10]. The inhibition entry in series [2], in series [15], in series [16] and in [17] was “Active” each time. In series [11], the solubility was less than 4 µM. For the same molecule, in series [12], the Ratio IC50 is more than 240. For the same molecule, in series [13], the Papp is 2 ×10⁻⁶ cm/s.

With `Cc1cc(Nc2ncc(-c3nc(-c4ccccc4)cs3)c(N[C@@H]3C[C@H](CO)[C@@H](O)[C@H]3O)n2)ccn1`, the IC50 in series [1] is 11 nM; in series [6] it was 94 nM; in series [7], more than 31000 nM; in [8], more than 50000 nM; in series [9], more than 50000 nM; in series [10], more than 50000 nM. Besides, in series [11], the solubility came out at 19 µM (≈ 9.32 µg/mL). Also, the Ratio IC50 in series [12] was 10. In addition, the Papp in series [13] was more than 15 ×10⁻⁶ cm/s.

Take `COc1cc(Nc2ncc(-c3nc(-c4ccccc4)cs3)c(N[C@@H]3C[C@H](CO)[C@@H](O)[C@H]3O)n2)ccn1`: in [1], the IC50 came to 89 nM.

For the molecule `COc1cc(Nc2ncc(-c3ccc4ccccc4n3)c(N[C@@H]3C[C@H](CO)[C@@H](O)[C@H]3O)n2)ccn1`, the IC50 was 25 nM in series [6]; more than 31000 nM in [7]; more than 50000 nM in series [8]; more than 50000 nM in [9]; more than 50000 nM in series [10]. The solubility in series [11] came out at 22 µM (≈ 10.4 µg/mL). For the same molecule, in [12], the Ratio IC50 is 10. Besides, the apparent permeability coefficient (Papp) in series [13] was more than 15 ×10⁻⁶ cm/s.

For the molecule `COc1cc(Nc2ncc(-n3cccn3)c(N[C@@H]3C[C@H](CO)[C@@H](O)[C@H]3O)n2)ccn1`, the IC50 in [1] was found to be 6010 nM.

In series [1], `Cc1cc(Nc2ncc(-n3cccn3)c(N[C@@H]3C[C@H](CO)[C@@H](O)[C@H]3O)n2)cc(C)n1` returned an IC50 of 932 nM.

The molecule `OC[C@H]1C[C@@H](Nc2nc(NC3CC3)ncc2-c2nc3cnccc3s2)[C@H](O)[C@@H]1O` came in with an IC50 in series [1] of 647 nM.

The record behind these values is ChEMBL document CHEMBL3600286, “Initial optimization and series evolution of diaminopyrimidine inhibitors of interleukin-1 receptor associated kinase 4” (Bioorg Med Chem Lett, 2015).
